Measurements published in patent publication US11555072B2, “A33 antibody compositions and methods of using the same in radioimmunotherapy” (MEMORIAL SLOAN KETTERING CANCER CENTER, priority 2017, dated 2023).

Assays:
T cells [1] = test: Cytokines and cytolytic molecules release assay; assay type: cell-based, human; conditions: T cells + Colo205, E:T 5:1, over 4 days
Method: Cytokines and cytolytic molecules release assay. T cells were purified from PBMCs using pan T cell isolation kit (Miltenyi Biotec, Cambridge, Mass.). Target and control tumor cells were incubated with 2×10^6 cells/well at an effector to target ratio of 5:1 in 24-well plates in triplicates, with 2 ml total volume per well. Culture supernatants were collected at 24 hours, 48 hours, 72 hours and 96 hours and cytokine levels were measured with flow cytometry using LEGENDplex™ human CD8/NK Panel (BIOLEGEND®, San Diego, Calif.) according to the manufacturer's protocol.
HuA33-BsAb induced secretion of inflammatory cytokines and cytolytic molecules. The secreted cytokine profile of T cells activated by huA33-BsAb in the presence of target tumors was examined. Total T cells were purified from PBMCs and cultured in the presence of Colo205 tumor cells at an effector to target ratio of 5:1. To estimate nonspecific activation, SKMEL5 cells were used as a negative control. Cell culture supernatants were collected daily over 4 days and the levels of cytokines and cytotoxic molecules were measured using a flow cytometry based multiplex method. […] Similarly, a significant amount of IL-6 was secreted by activated T cells. Th17 cytokine IL-17a was also secreted at high levels.

T cells [2] = test: In vivo T cell proliferation assay; conditions: CFSE-labeled PBMCs + Colo205 s.c. in DKO mice, antibody i.v. next day, tumors analyzed 4 days later
Method: To determine if T cells can be activated in vivo, an in vivo proliferation assay was conducted by mixing CFSE-labeled PBMCs with Colo205 cells and the mixture was implanted subcutaneously onto DKO mice. huA33-BsAb was injected intravenously the next day and the tumors were isolated after another 4 days and analyzed by FACS.

Colo205 cells = test: TDCC assay with sorted fresh T cell subsets; assay type: cell-based, human
Method: T-cell dependent cytotoxicity (TDCC) assays. Cytotoxicity assays were performed using both ^51Cr-release assay and Pierce LDH-release assay (Thermo Fisher Scientific, Cambridge, Mass.). For both assays, T cells activated by exposure to anti-CD3/anti-CD28 Dynabeads for 14 days were subsequently used as effector cells, excepted for sorted cells from PBMCs, which were used for TDCC assay without prior stimulation. ^51Cr assay was performed as previously described in Cheng M et al., International Journal of Cancer 136:476-486 (2015). LDH assay was conducted according to the manufacturer's instructions with the following modifications. Briefly, for each assay well of a 96-well round-bottom plate, 1.5×10^4 target cells were incubated with variable number of effector cells, depending on the intended E:T ratios. […] Each condition was done in triplicates. Supernatant was then transferred to a flat bottom plate with reaction substrate and incubated for 30 min before reading at 490 nm, with 680 nm as a reference wavelength. EC50 values were calculated by fitting the curves to a 4-parameter nonlinear regression model using GraphPad Prism.
To determine which subsets of T cells were mobilized by huA33-BsAb, CD45RA(+)CD62L(+) and CD45RA(−)CD45RO(+)CD62L(−) memory subsets from both CD4(+) and CD8(+) T cells were sorted. […]

[3] = test system: GPA33-expressing cancer cells; test: T-cell dependent cytotoxicity (TDCC) assay with activated T cells; assay type: cell-based, human
Method: T-cell dependent cytotoxicity (TDCC) assays. Cytotoxicity assays were performed using both ^51Cr-release assay and Pierce LDH-release assay (Thermo Fisher Scientific, Cambridge, Mass.). For both assays, T cells activated by exposure to anti-CD3/anti-CD28 Dynabeads for 14 days were subsequently used as effector cells, excepted for sorted cells from PBMCs, which were used for TDCC assay without prior stimulation. ^51Cr assay was performed as previously described in Cheng M et al., International Journal of Cancer 136:476-486 (2015). LDH assay was conducted according to the manufacturer's instructions with the following modifications. Briefly, for each assay well of a 96-well round-bottom plate, 1.5×10^4 target cells were incubated with variable number of effector cells, depending on the intended E:T ratios. Antibodies were then added at different dilutions and the plates were incubated at 37° C. for 16 hours. Each condition was done in triplicates. Supernatant was then transferred to a flat bottom plate with reaction substrate and incubated for 30 min before reading at 490 nm, with 680 nm as a reference wavelength. EC50 values were calculated by fitting the curves to a 4-parameter nonlinear regression model using GraphPad Prism.
Cancer cells were incubated with activated T cells at an effector to target ratio of 10:1 in the presence of 10-fold serial dilutions of huA33-BsAb. GPA33(−) melanoma cell line SKMEL5 and […] cell line TC32 were used as negative controls. […] Maximal level of cytotoxicity seemed to correlate with the level of FACS staining (FIG. 1(D) and FIG. 4(A)). Moreover, TDCC induced by huA33-BsAb was potent, with EC50 values in the pM range.

SNU16 tumors = test: s.c. SNU16 gastric cancer xenograft with PBMCs; assay type: in vivo, mice; conditions: s.c. SNU16 mixed with human PBMCs
Method: In vivo tumor therapy. For subcutaneous (s.c.) tumor models, LS174T, Colo205 or SNU16 cells were combined with fresh PBMCs at a 1:1 ratio, mixed with […]® (volume of cell:gel=1:2), and implanted (100 μl/mouse) at the flank of Balb/c Rag2^−/−IL2Rγ^−/− (DKO) mice (now commercially available from Taconic as CIEA BRG mice). Treatment started after confirmation of tumor presence with a BIW schedule at 100 μg/mouse and continued for 3-4 weeks. Tumor growth was monitored by weekly measurement of tumor volume using a caliper or a digital device Peira TM900 Scanner (Peira Scientific Instruments, Turnhout, Belgium).
HuA33-BsAb inhibited growth of gastric cancers in a s.c. xenograft model. GPA33 is expressed in a subset of gastric cancer cells. […] Unlike NSG mice, DKO mice were more resistant to engraftment of human PBMCs.

Substance: huA33-BsAb: huA33 IgG with humanized OKT3 scFv fused to light chain C-terminus, N297A and K322A; SEQ ID NO: 19 and 21
- release of cytotoxic components (sFasL, sFas, Granzyme A, Granzyme B, Perforin, Granulysin) (T cells [1]): all released in the supernatant
- secretion of cytokines by activated T cells (T cells [1]): both Th1 cytokines (IL-2, IFNγ, TNFα) and Th2 cytokines (IL-4, IL-10) were secreted by activated T cells
- CD4(+) and CD8(+) T cells that upregulated CD25 expression while undergoing cell division (T cells [2]): around 25%
- CD25 expression on T cells from the TDCC assay (Colo205 cells; CD45RO+ and CD45RO− fractions, 48 hours): CD25 expression was upregulated
- cytotoxicity by sorted T cell subsets (Colo205 cells; Colo205, E:T 5:1, 48 hours, LDH assay): both CD4(+) and CD8(+) memory T cell subsets were capable of inducing cytotoxicity
- redirected T cell killing of GPA33-expressing cancer cells ([3]; LS174T, SW1222, Colo205, SNU16, activated T cells, E:T 10:1, 16 hours): specifically kill all GPA33-expressing cancer cells
- redirected T cell killing of GPA33(−) control cells ([3]; SKMEL5 and TC32, E:T 10:1): sparing SKMEL5 and TC32
- TDCC EC50 values ([3]; activated T cells, E:T 10:1): pM range
- survival (SNU16 tumors): significantly prolonged survival
- tumor response (SNU16 tumors): effectively cured the mice harboring s.c. tumors
